Values of other authors, collected in patent publication US20230414697A1, “ENHANCED GINGEROLS FOR PATIENTS SUFFERING FROM NAUSEA AND EMESIS” (Aphios Corporation, priority 2020, published 2023).

What was measured:
[1] = 2.0 gm oral ginger, 1.25 mg intravenous droperidol, placebo; 24 hour period following surgery
[2] = post-operative; reported by Bone and colleagues
[3] = ginger 0.5 gm or 1 gm, metochlopramide 10 mg

O=C(CCCN1CC=C(n2c(=O)[nH]c3ccccc32)CC1)c1ccc(F)cc1 [droperidol]
differences in frequency or severity of post-operative nausea or frequency of post-operative vomiting [1]: no differences

CCN(CC)CCNC(=O)c1cc(Cl)c(N)cc1OC [metochlopramide]
vomiting vs placebo [2]: less vomiting | frequency of emesis, differences between the three arms (ginger, metochlopramide, placebo, post-operative): no significant differences | patients nauseated (post operative, placebo 41%): placebo, 27% | post-operative nausea vs placebo ([3]; both studies): significantly more effective than placebo | effectiveness for post-operative nausea, ginger compared with metochlopramide ([3]; women undergoing gynecologic surgery, two studies): equal effectiveness
